{"source": "ChEMBL document CHEMBL3243918", "about": "“Synthesis and adrenergic beta-blocking activity of some 1,3-benzodioxole derivatives” (J Med Chem, 1977)", "key": {"[1]": {"tested_on": "Cavia porcellus", "assay": "Hypotensive activity at guinea pig assessed as decrease in blood pressure at 100 mg/kg, po after 5 hrs", "format": "functional, organism-based", "design": "dose 100 mg/kg"}, "[2]": {"assay": "Antagonist activity at guinea pig atrial beta adrenergic receptor assessed as isometric contractions by force displacement transducer", "format": "tissue-based, Cavia porcellus, Cardiac atrium"}, "[3]": {"tested_on": "Cavia porcellus", "assay": "Hypotensive activity at guinea pig assessed as decrease in blood pressure at 100 mg/kg, po after 1 hr", "format": "functional, organism-based", "design": "dose 100 mg/kg"}, "[4]": {"tested_on": "Cavia porcellus", "assay": "Hypotensive activity at guinea pig assessed as decrease in blood pressure at 100 mg/kg, po after 3 hrs", "format": "functional, organism-based", "design": "dose 100 mg/kg"}, "[5]": {"tested_on": "Cavia porcellus", "assay": "Hypotensive activity at guinea pig assessed as decrease in blood pressure at 50 mg/kg, po after 5 hrs (reference value: 112 +/- 2.6 to 122 +/- 2.7 mmHg)", "format": "functional"}, "[6]": {"tested_on": "Cavia porcellus", "assay": "Toxicity in guinea pig assessed as increase in heart beating rate at 50 mg/kg, po", "format": "organism-based", "design": "dose 50 mg/kg, route oral", "details": "in vivo"}, "[7]": {"tested_on": "Cavia porcellus", "assay": "Hypotensive activity at guinea pig assessed as decrease in blood pressure at 50 mg/kg, po after 1 hr (reference value: 112 +/- 2.6 to 122 +/- 2.7 mmHg)", "format": "functional"}, "[8]": {"tested_on": "Cavia porcellus", "assay": "Hypotensive activity at guinea pig assessed as decrease in blood pressure at 50 mg/kg, po after 3 hrs (reference value: 112 +/- 2.6 to 122 +/- 2.7 mmHg)", "format": "functional"}, "[9]": {"tested_on": "Cavia porcellus", "assay": "Toxicity in guinea pig assessed as depression in heart beating rate at 50 mg/kg, po relative to control", "format": "organism-based", "design": "dose 50 mg/kg, route oral", "details": "in vivo"}, "[10]": {"species": "Cavia porcellus", "assay": "Antagonist activity at guinea pig atrial beta adrenergic receptor assessed as isometric contractions at 5 x 10^-5 M by force displacement transducer", "format": "tissue-based", "details": "Cardiac atrium"}}, "note": "Calls of active or inactive are those of the source. The rule behind the calls is not given here.", "data": [{"smiles": "CC(C)(C)NCC(O)COC(=O)c1ccc2c(c1)OCO2.Cl", "note": "(stereo not given)", "values": [{"measurement": "Activity", "setting": "[1]", "result": "inactive"}, {"measurement": "pA2", "setting": "[2]", "result": 6.9}, {"measurement": "Activity", "setting": "[3]", "result": "inactive"}, {"measurement": "Activity", "setting": "[4]", "result": "inactive"}]}, {"smiles": "CC(C)NCC(O)c1ccc2c(c1)OCO2.Cl", "note": "(stereo not given)", "values": [{"measurement": "Activity", "setting": "[5]", "result": 87, "unit": "mmHg"}, {"measurement": "Activity", "setting": "[6]", "result": 25, "unit": "%"}, {"measurement": "Activity", "setting": "[7]", "result": 97, "unit": "mmHg"}, {"measurement": "pA2", "setting": "[2]", "result": 6.2}, {"measurement": "Activity", "setting": "[8]", "result": 84, "unit": "mmHg"}]}, {"smiles": "CNCC(O)COC(=O)c1ccc2c(c1)OCO2.O=C(O)C(=O)O", "note": "(stereo not given)", "values": [{"measurement": "Activity", "setting": "[1]", "result": "inactive"}, {"measurement": "Activity", "setting": "[9]", "result": "< 10", "unit": "%"}, {"measurement": "pA2", "setting": "[2]", "result": 5.3}, {"measurement": "Activity", "setting": "[3]", "result": "inactive"}, {"measurement": "Activity", "setting": "[4]", "result": "inactive"}]}, {"smiles": "NNc1nncc2ccccc12", "values": [{"measurement": "Activity", "setting": "[10]", "result": "inactive"}]}, {"smiles": "CC(C)NCC(O)/C=C/c1ccc2c(c1)OCO2", "note": "(stereo not given)", "values": [{"measurement": "Activity", "setting": "[1]", "result": "inactive"}, {"measurement": "Activity", "setting": "[3]", "result": "inactive"}, {"measurement": "Activity", "setting": "[10]", "result": "inactive"}, {"measurement": "Activity", "setting": "[4]", "result": "inactive"}]}, {"smiles": "CC(C)(C)NCC(O)c1ccc2c(c1)OCO2.Cl", "note": "(stereo not given)", "values": [{"measurement": "Activity", "setting": "[5]", "result": 77, "unit": "mmHg"}, {"measurement": "Activity", "setting": "[7]", "result": 83, "unit": "mmHg"}, {"measurement": "pA2", "setting": "[2]", "result": 6.5}, {"measurement": "Activity", "setting": "[8]", "result": 77, "unit": "mmHg"}]}, {"smiles": "N=C(N)NCCc1ccc2c(c1)OCO2", "values": [{"measurement": "Activity", "setting": "[1]", "result": "inactive"}, {"measurement": "Activity", "setting": "[3]", "result": "inactive"}, {"measurement": "Activity", "setting": "[10]", "result": "inactive"}, {"measurement": "Activity", "setting": "[4]", "result": "inactive"}]}, {"smiles": "N=C(N)NCC(O)c1ccc2c(c1)OCO2", "note": "(stereo not given)", "values": [{"measurement": "Activity", "setting": "[1]", "result": "inactive"}, {"measurement": "Activity", "setting": "[3]", "result": "inactive"}, {"measurement": "Activity", "setting": "[10]", "result": "inactive"}, {"measurement": "Activity", "setting": "[4]", "result": "inactive"}]}, {"smiles": "CC(C)NCC(O)c1ccc(NS(C)(=O)=O)cc1", "note": "(stereo not given) [SOTALOL]", "values": [{"measurement": "Activity", "setting": "[5]", "result": 107, "unit": "mmHg"}, {"measurement": "Activity", "setting": "[7]", "result": 112, "unit": "mmHg"}, {"measurement": "pA2", "setting": "[2]", "result": 6.8}, {"measurement": "Activity", "setting": "[8]", "result": 108, "unit": "mmHg"}]}, {"smiles": "OC(CNC1=NCCN1)c1ccc2c(c1)OCO2", "note": "(stereo not given)", "values": [{"measurement": "Activity", "setting": "[1]", "result": "inactive"}, {"measurement": "Activity", "setting": "[3]", "result": "inactive"}, {"measurement": "Activity", "setting": "[10]", "result": "inactive"}, {"measurement": "Activity", "setting": "[4]", "result": "inactive"}]}, {"smiles": "CC(C)NCC(O)COc1cccc2ccccc12", "note": "(stereo not given) [PROPRANOLOL]", "values": [{"measurement": "Activity", "setting": "[5]", "result": 117, "unit": "mmHg"}, {"measurement": "Activity", "setting": "[7]", "result": 141, "unit": "mmHg"}, {"measurement": "Activity", "setting": "[8]", "result": 119, "unit": "mmHg"}]}, {"smiles": "CC(C)NC(C)C(O)c1ccc2c(c1)OCO2.Cl", "note": "(stereo not given)", "values": [{"measurement": "Activity", "setting": "[5]", "result": 94, "unit": "mmHg"}, {"measurement": "Activity", "setting": "[9]", "result": "< 10", "unit": "%"}, {"measurement": "Activity", "setting": "[7]", "result": 92, "unit": "mmHg"}, {"measurement": "Activity", "setting": "[10]", "result": "inactive"}, {"measurement": "Activity", "setting": "[8]", "result": 91, "unit": "mmHg"}]}, {"smiles": "c1cc2c(cc1CCNC1=NCCN1)OCO2", "values": [{"measurement": "Activity", "setting": "[1]", "result": "inactive"}, {"measurement": "Activity", "setting": "[3]", "result": "inactive"}, {"measurement": "Activity", "setting": "[10]", "result": "inactive"}, {"measurement": "Activity", "setting": "[4]", "result": "inactive"}]}, {"smiles": "CC(C)NCC(O)COC(=O)c1ccc2c(c1)OCO2.Cl", "note": "(stereo not given)", "values": [{"measurement": "Activity", "setting": "[1]", "result": "inactive"}, {"measurement": "pA2", "setting": "[2]", "result": 6.9}, {"measurement": "Activity", "setting": "[3]", "result": "inactive"}, {"measurement": "Activity", "setting": "[4]", "result": "inactive"}]}]}
